Test results reported in US9011853B2, “B7-H4 fusion proteins and methods of use thereof” (Amplimmune, Inc., priority 2009, dated 2015).
“Also recorded” adds a separate entry of the source.

Tests used:
DBA/1 mice = assay: Therapeutic CIA study AA#79 (female mice), disease score; assay type: in vivo, mouse; conditions: female DBA/1 mice; 20 mg/kg IP 3× weekly, 8 doses from Day 29; vs control groups (FIG. 7); 20 mg/kg
Protocol: DBA/1 mice (10 per group) aged 7-9 weeks were used for the CIA model. Mice from several vendors (Jackson Laboratories, Harlan Laboratories, and Taconic Farms) were tested and it was determined that Taconic mice are most appropriate for the CIA studies. Taconic mice develop more consistent and severe disease symptoms and show continued disease progression, while mice from the other vendors often show stable, less severe disease, even in the absence of treatment. female (F) mice in AA#79 and male (M) mice in AA#80, were tested to determine which gender to use in future experiments.
On the day before the study is initiated, the hair on the right flank of each mouse was removed using an electric clipper. A metal identification tag was placed on the right ear of each mouse. On Day 0, mice were immunized with 100 μL of chicken collagen type II/Complete Freund's Adjuvant (CII/CFA) emulsion in the right flank. On Day 20, the hair on the left flank of each mouse was removed using an electric clipper, and on Day 21, mice were immunized with 100 μL of chicken collagen type II/Incomplete Freund's Adjuvant (CII/IFA) emulsion in the left flank. Pre-filled syringes of CII/CFA and CII/IFA emulsion purchased from Hooke Laboratories were used to ensure consistent dosing with and potency of the immunogen.
Early arthritis symptoms, such as erythema and mild swelling, usually appear on Day 21, and on Day 28, more severe symptoms such as swelling in many digits and inflammation extending to the tarsal joint are typically present. Each limb is evaluated for severity of arthritis symptoms three times a week using a widely accepted arthritis severity score system, shown in Table 2. The scores from each of the 4 limbs are summed to yield the disease score of each mouse. […]
Treatment was initiated when the average disease score for the study animals was greater than four. This corresponded to Day 29 in AA#79 and Day 24 in […]. By waiting until animals are symptomatic, it was ensured that the model is performed in a therapeutic rather than prophylactic mode.
B7-H4-Ig, RPA110010, and murine B7-H4-Ig proteins were administered by intraperitoneal (IP) injection 3 times a week for a total of 8 doses. RPA110010 is an extracellular domain variant of B7-H4-Ig, SEQ ID NO:126. Control murine and human IgG proteins were given once a week for a total of 3 doses. […] All proteins were diluted to the desired concentration (500 μg in 500 μL, or 1 mg/mL) with sterile PBS immediately before injection. Vehicle control mice receive Amplimmune formulation buffer diluted 1:10 in PBS, with an injection volume of 500 μL.

[1] = system: serum levels of 58 analytes; assay: Serum biomarker analysis, quantitative immunoassay multi-analyte profiling (Rules-Based Medicine RodentMAP v2.9), AA#80; assay type: in vivo, mouse
Protocol: In AA#80, serum samples were collected on Day 27, Day 34, Day 41 and Day 55 via the submandibular vein. Approximately 200 μL of blood per mouse was collected in Microtainer® serum separator tubes. Serum was removed following centrifugation and stored at <−65° C. until analysis.
Selected serum samples were sent to Rules-Based Medicine (Austin, Tex.) for quantitative immunoassay multi-analyte profiling of serum samples, with the goal of identifying biomarkers that could be used to monitor disease progression and response to B7-H4-Ig treatment. Day 27, Day 34, and Day 41 sera from the three representative mice in the B7-H4-Ig group (tag #3332, 3334, and 3338) and three representative mice in the Synagis® group (tag #3324, 3329, and 3330) were analyzed for levels of 58 analytes using the RodentMAP v2.9 Testing Service.
Data from the Rules-Based Medicine analysis was analyzed using Microsoft Excel and GraphPad Prism software. T-tests were performed to compare the levels of each analyte in the B7-H4-Ig versus Synagis® treated samples. No correction was made for multiple comparisons. Additionally, correlation coefficients were calculated for each analyte versus disease score.

## B7-H4-Ig: B7-H4 extracellular domain fused to Ig Fc; bare label is the human protein in Example 3, murine protein in Examples 1, 2, 5, 7-11
DBA/1 mice
  disease scores, AA#79: lower disease scores than mice in the control groups; also recorded: prolonged period of stable disease scores
[1]; AA#80 serum (FIG. 11)
  serum IL-6 levels, difference between Synagis and B7-H4-Ig groups: did not reach statistical significance
[1]; B7-H4-Ig vs Synagis treated groups
  serum SAP levels: not significantly different
[1]; Day 41, vs Synagis treated mice (FIG. 15)
  serum MIP-2 levels: significantly lower
[1]; Day 41 and overall, vs Synagis treated mice (FIG. 10)
  serum ET-1 levels: significantly lower
[1]; Day 41 and overall, vs Synagis treated mice (FIG. 12)
  serum MCP-1 levels: significantly lower
[1]; Day 41 and overall, vs Synagis treated mice (FIG. 14)
  serum MCP-3 levels: significantly lower
[1]; all samples (Day 27, 34, 41) (FIG. 16)
  serum samples with TNF-α levels above the limit of detection: none
